Reference: patent US20240024405A1, “COMPOSITIONS OF CASPASE INHIBITORS AND METHODS OF USE THEREOF” (priority 2022, published 2024)
Where a SMILES comes first, the peptide text is derived from it. The star is where a group is joined. Cbz = O=C(OCc1ccccc1)*; CH2F = FC*

What was measured:
caspase-6 [1] = assay type: cell-based
MERS-CoV [2] = assay type: cell-based
MERS-CoV [3] = assay type: cell-based; remark: listed apart in the source
MERS-CoV [4] = assay type: cell-based; remark: listed apart in the source
HCoV-229E = assay type: cell-based
SARS-CoV-1 = assay type: cell-based
MERS-CoV [5] = assay type: cell-based; remark: listed apart in the source
rMERS-CoV/TKKA = assay type: cell-based, MERS-CoV
enterovirus A71 = assay type: cell-based
MERS-CoV [6] = tested on: MERS-CoV
rMERS-CoV/TKKD = assay type: cell-based, MERS-CoV
caspase-6 [7] = biological target: T1, caspase-6 (Homo sapiens, UniProt P55212); assay type: cell-based
T1 construct: expressed in transfected cells
T1 sequence (P55212 24-179 limits assumed): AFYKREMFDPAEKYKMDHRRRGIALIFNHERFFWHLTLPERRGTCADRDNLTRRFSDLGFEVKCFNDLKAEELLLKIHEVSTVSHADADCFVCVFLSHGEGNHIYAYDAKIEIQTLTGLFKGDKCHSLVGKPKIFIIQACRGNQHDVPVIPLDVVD
T1 sequence (P55212 194-293 limits assumed): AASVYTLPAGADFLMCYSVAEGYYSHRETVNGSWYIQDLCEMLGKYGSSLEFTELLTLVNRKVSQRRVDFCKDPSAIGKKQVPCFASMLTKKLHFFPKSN

SARS-CoV-2 [8] = tested on: SARS-CoV-2; parameters: species or system Golden Syrian hamsters; settings: in vivo
influenza virus (H1N1) = assay type: cell-based
SARS-CoV-2 [9] = tested on: SARS-CoV-2
MERS-CoV [10] = assay type: cell-based, human
MERS-CoV [11] = assay type: cell-based, human; remark: listed apart in the source
MERS-CoV MA = tested on: MERS-CoV MA; parameters: species or system mice; settings: in vivo

CN[C@@H]1C[C@H]2O[C@@](C)([C@@H]1OC)n1c3ccccc3c3c4c(c5c6ccccc6n2c5c31)C(=O)NC4 [Staurosporine]
Caspase-6 activity in cell lysate (caspase-6 [1]): activated

CC[C@H](C)[C@H](NC(=O)[C@H](CCC(=O)OC)NC(=O)[C@@H](NC(=O)OCc1ccccc1)C(C)C)C(=O)N[C@@H](CC(=O)OC)C(=O)CF [z-VEID-fmk, Z-Val-Glu(OMe)-Ile-Asp(OMe)-CH2F] (Cbz-VE(OMe)ID(OMe)-CH2F)
Viral inhibitory effect in stable caspase-6 knockdown cells (MERS-CoV [2]): largely diminished | MERS-CoV replication among specific caspase inhibitors (MERS-CoV N-positive cells) (MERS-CoV [3]): most dramatically limited | Virus replication when inhibitor added during MERS-CoV inoculation (MERS-CoV [4]): did not reduce | HCoV-229E replication (N gene copy) (HCoV-229E): attenuated | SARS-CoV-1 replication (N gene copy) (SARS-CoV-1): attenuated | Antiviral effect of z-VEID-fmk when the IFN pathway is non-functional (MERS-CoV [5]): diminished | Replication of rMERS-CoV/TKKA (rMERS-CoV/TKKA): not limited | Enterovirus A71 replication (VP1 gene copy) (enterovirus A71): did not impact | IC50 (MERS-CoV [6]): 21.1 µM | Inhibitory effect on MERS-CoV replication across cell types (MERS-CoV [6]): conserved across different cell types exceptVeroE6 cells | MERS-CoV replication (N gene copy) (MERS-CoV [6]): attenuated | Replication of rMERS-CoV/TKKD (rMERS-CoV/TKKD): remained effective | Cleavage of MERS-CoV N by co-expressed caspase-6 (caspase-6 [7]): completely abolished | N cleavage in MERS-CoV-infected cells (caspase-6 [7]): similarly inhibited | Alveolar space immune cells infiltration (SARS-CoV-2 [8]; hamster): dramatically inhibited | Body weight of infected hamsters (SARS-CoV-2 [8]; hamster): significant improvements | Lung damage by histopathological scores (SARS-CoV-2 [8]; hamster): significantly ameliorated | Tissue damage: bronchiolitis, alveolitis and vasculitis (SARS-CoV-2 [8]; hamster): significantly ameliorated | Expression of virus-induced pro-inflammatory cytokines and chemokines in hamster lungs (SARS-CoV-2 [8]): ameliorated | Hamster lung pathology (H&E) (SARS-CoV-2 [8]): markedly improved | Number of viral N-protein positive cells in hamster lungs (SARS-CoV-2 [8]): reduced | SARS-CoV-2 replication in the hamster lungs (SARS-CoV-2 [8]): significantly reduced | HCoV-OC43 replication (N gene copy) (HCoV-OC43): attenuated | IC50 (HCoV-OC43): 30.6 µM | H1N1 replication (M gene copy) (influenza virus (H1N1)): did not impact | SARS-CoV-2 replication (RdRp gene copy) (SARS-CoV-2 [9]): attenuated | MERS-CoV nucleocapsid (N) protein and N gene expression in human lung tissues (MERS-CoV [10]): significantly reduced | MERS-CoV replication in human intestinal organoids (MERS-CoV [11]): inhibited | Inhibition of production of infectious virus particles in human intestinal organoids (MERS-CoV [11]; 100 µM): approximately 80% | Expression of pro-inflammatory cytokines and chemokines in mouse lungs (MERS-CoV MA): significantly attenuated | Body weight loss of infected mice (MERS-CoV MA; mouse): largely inhibited | MERS-CoV MA replication in the lungs (MERS-CoV MA; mouse): effectively reduced | Survival of infected hDPP4 KI mice (MERS-CoV MA; mouse): 80%

z-VAD-fmk
HCoV-229E replication with pan-caspase inhibitor (HCoV-229E): similarly limited | SARS-CoV-1 replication with pan-caspase inhibitor (SARS-CoV-1): similarly limited | MERS-CoV replication with pan-caspase inhibitor (MERS-CoV [6]): significantly limited | HCoV-OC43 replication with pan-caspase inhibitor (HCoV-OC43): similarly limited | SARS-CoV-2 replication with pan-caspase inhibitor (SARS-CoV-2 [9]): similarly limited
